Measurements reported in patent US20240156901A1, “GAL3BP POLYPEPTIDE COMPOSITIONS AND METHODS FOR TREATMENT OF CANCER AND DETERMINING TREATMENT RESPONSIVENESS” (UNIVERSITY OF PITTSBURGH-OF THE COMMONWEALTH SYSTEM OF …, priority 2021, published 2024).

Key:
[1] = test system: bone-marrow derived macrophages (BMDMs); test: Scratch-wound healing assay, BMDM migration; type: cell-based, mouse
Procedure: (§1) BMDMs were isolated from male and female C57BL/6 mice as previously described (Ying W et al., 2013). Briefly, femur bones were isolated from mice, and IMDM (ATCC) supplemented with 10% FBS and P/S was used to flush the bone marrow into a petri dish. After 4-6-hour incubation, the floating cells were collected and resuspended in the medium with 20 ng/mL M-CSF (PrproTech). On day 6, the fully differentiated cells were designated as an M0 state. To induce BMDM polarization toward an M1 state, 100 ng/mL LPS (Invitrogen) and 50 ng/mL IFNγ (PrproTech) were added to the M0 cells for 24 hours. To induce BMDM polarization toward an M2 state, 20 ng/mL IL-4 (PrproTech) was added to the M0 cells for 72 hours.
BMDM were polarized to the indicated status (M0, M1, or M2) and seeded in 12-well plates at 80-90% confluency. The cells were switched to the medium without FBS for 6 hours of starvation. Scratches were made using pipettor tips and fresh IMDM with indicated recombinant proteins and/or peptides were added. Images of the scratches were captured at indicated times. For the SIM-A9 scratch-wound healing assay, 12-well plates were coated with 10 μg/mL fibronectin (Sigma-Aldrich) at 37° C. overnight before seeding cells.

[2] = biological target: T1, binding of CHI3L1 and Gal3 (Homo sapiens, UniProt P36222); test: Co-IP with Gal3 antibody in THP-1 cells treated with peptides; settings: 20 μM for 24 hours
T1 construct: endogenous in cells; host or cells: THP-1 cells
Procedure: TS603 cells overexpressing CHI3L1 with V5 tag (TS603 CHI3L1_V5_OE) or THP-1 cells treated with the peptides were collected and protein-protein interaction was crosslinked with 2 mM Dithiobis (succinimidyl propionate, DSP). Membrane proteins were extracted with the Membrane Protein Extraction Kit (ThermoFisher, Cat #89842) and ˜500 μg of protein was used for Co-IP assay by the Co-Immunoprecipitation Kit (ThermoFisher, Cat #26149).
(§2) For in vivo THP-1 cell or in vitro recombinant protein Co-IP experiments, additional following antibodies were used: Mouse anti-CHI3L1 (Santa Cruz Biotechnology, Cat #SC-393590), Rat anti-Galectin-3 (Santa Cruz Biotechnology, Cat #SC-23938), anti-Galectin-3BP (Santa Cruz Biotechnology, Cat #SC-374541), Rabbit anti-CHI3L1 (Cell Signaling Technology, Cat #47066), and Rat IgG (BioXCell, Cat #BE0090).

[3] = test system: Gal3/CHI3L1; test: Inhibition of Gal3/CHI3L1 by Gal3BP polypeptides; settings: SEQ ID NO: 4 as compared to SEQ ID NO: 5
[4] = test system: GL261-CHI3L1 glioma; test: Flow cytometry of immune cell populations in GL261-CHI3L1 glioma after peptide treatment; type: in vivo, mouse
Procedure: Mice with neurological deficits or moribund appearance were sacrificed. Tumors were separated and homogenized for 15 min at 37° C. in Collagenase IV Cocktail (3.2 mg/mL collagenase type IV, 2 mg/mL soybean trypsin inhibitor, and 1.0 mg/mL deoxyribonuclease I; Worthington Biochemical). Red blood cells were lysed using ACK lysing buffer (Gibco). Cell suspensions were filtered through 70-μm strainers, centrifuged, and resuspended in cold FACS buffer (DPBS with 1% BSA) for further analysis.
About 3×10^6 cells were used for each staining panel. Cells were incubated with 1.0 μg of TruStain fcX (BioLegend) for 10 min on ice to block Fc receptors, followed by staining with the combination of indicated antibodies. After staining, cells were washed with FACS buffer three times and incubated with Fixation Buffer (BioLegend) at RT for 20 min. Cells were washed with FACS buffer, resuspended in Cyto-Last Buffer (BioLegend), and analyzed by either a BD LSRFortessa or BD FACSAria II SORP. For CyTOF, samples were prepared as described above for flow cytometry. Three pairs of samples (scrambled shRNA vs Chi3l1 KD) with similar tumor sizes were chosen and the staining procedure was followed as previously described (Mitsialis V, et al., 2020). The samples were analyzed on a Helios2 CyTOF system (Fluidigm) at the Longwood Medical Area CyTOF Core. Additional information about flow cytometry antibodies is provided in the Supplementary Material and Methods section.

[5] = test system: GL261-CHI3L1 orthotopic tumors; test: Peptide treatment of GL261-CHI3L1 orthotopic tumors (MRI, survival)
Procedure: (§3) Male and female ICR SCID and C57BL/6 mice (4-6 weeks of age) were purchased from Taconic Biosciences and The Jackson Laboratory, respectively. The intracranial xenograft tumor models were established as previously described (Hu B et al., 2016). Cells in 5 μL DPBS were injected at the following numbers: TS543 vector control or CHI3L1 overexpression (OE), 1×10^4 cells; QPP7 scrambled control or CHI3L1 knockdown (KD), 1×10^5 cells; and GL261 vector control or CHI3L1 OE, 1×10^5 cells. […] For mice treated with peptides, 5 uL of 20 uM SCP or GMP was delivered into the mouse brain every 4 days with a total of seven times.
(§4) MRI and bioluminescent imaging of mice were performed at Rangos Research Center Animal Imaging Core. The tumor size of mice detected by MRI was analyzed with ITK-SNAP.
For intracranial xenograft tumor models treated with peptides, mice were implanted with a guide screw prior to intracranial injection. To install the screw, mice were anesthetized by intraperitoneal (IP) injection with ketamine/xylazine solution (1.75 mL of 100 mg/mL ketamine and 0.25 mL of 100 mg/mL xylazine in 8 mL sterile water) at a dosage of 100 μL/20 g body weight. The screw was covered by sealing the skin, and mice were allowed to recover for one week before intracranial implantation. GL261 cells overexpressing CHI3L1 (1×10^5) were injected in 5 μL of DPBS containing 20 μM of either scrambled control peptide (SCP) or Gal3BP mimetic peptide (GMP). SCP (20 μM) or GMP (20 μM) was subsequently given once every 3 days with a total of seven times by intracranial injection via the guide screw.
(§5) All mice received general inhalation anesthesia with Isoflurane for in vivo brain imaging. […] Depth of anesthesia was monitored by toe reflex (extension of limbs, spine positioning) and respiration rate. […] Respiration was monitored using a pneumatic sensor placed between the animal bed and the mouse's abdomen, rectal temperature was measured with a fiberoptic sensor, and core temperature was maintained at 36.8±0.2° C. with a feedback-controlled warm air source (SA Instruments). […]

[6] = test system: QPP7 glioma; test: Peptide treatment of orthotopic syngeneic QPP7 glioma (MRI, survival); settings: orthotopic syngeneic mice bearing QPP7 glioma; local delivery into the brain; vs SCP
Procedure: as §3, §4
For intracranial xenograft tumor models treated with peptides, mice were implanted with a guide screw prior to intracranial injection. […]
as §5

[7] = test system: bone-marrow derived macrophages (BMDMs); test: Transwell migration assay, BMDM migration; type: cell-based, mouse; settings: rCHI3L1 2.5 μg/mL, rGal3BP 5.0 μg/mL
Procedure: as §1
Polarized BMDMs were starved by removing FBS for 6 hours. Cells were collected and 2×10^5 cells in 200 μL of IMDM were added into each transwell insert (Millipore, Cat #MCMP24H48). 700 μL of IMDM containing 2% FBS and the indicated recombinant proteins was added to the bottom of the plates. After 14-hour incubation, transwell inserts were stained with HEMA 3 Stain Set (Fisher Scientific). Insert membranes were separated and mounted on glass slides with CYTOSEAL XYL (ThermoFisher) and images were taken by an inverted microscope (Leica DM 2500). For the SIM-A9 cells, the inserts were coated with 10 μg/mL fibronectin overnight in advance of seeding cells.

[8] = biological target: T2, Gal3 and CHI3L1 protein binding (Homo sapiens, UniProt P36222); test: In vitro recombinant protein Co-IP competition (rGal3 + rCHI3L1 + increasing rGal3BP); settings: 200 ng rGal3+200 ng rCHI3L1; rGal3BP 0-800 ng/sample; with or without TD139
T2 construct: purchased R&D Systems 2599-CH-050 (CHI3L1); 8259-GA-050 (Galectin-3)
Description: as §2

[9] = test system: Arg1, Ym1, Ccl2, Il10 gene expression; test: qRT-PCR of immune suppression genes in M0 BMDMs; type: cell-based, mouse; settings: rCHI3L1 2.5 μg/mL, rGal3 2.5 μg/mL, rGal3BP 5.0 μg/mL, 24 hours
Procedure: as §1
RNA was extracted and cDNA was synthesized as described previously (Hu B et al., 2016). qRT-PCR was performed using PowerSYBR Green PCR Master Mix (Applied Biosystems) and detected with a StepOnePlus Real-Time PCR System (Applied Biosystems). Each reaction was performed in duplicate or triplicate. The relative expression of genes was normalized to human RPL39 or mouse 18S ribosomal RNA. For RNA-seq experiments, cells from intracranial xenograft tumors were isolated and incubated with antibodies for immune cell types. Macrophages were isolated by FACS and RNA was then isolated and sent to Health Sciences Sequencing Core at UPMC Children's Hospital of Pittsburgh for RNA-seq. […]

[10] = test system: PI3K/AKT/mTOR pathway; test: Immunoblot of PI3K/AKT/mTOR signaling and transcription factors in M0 BMDMs; type: cell-based, mouse; settings: 30 minutes
Procedure: Cells were lysed on ice using RIPA buffer (Millipore) supplemented with protease and phosphatase inhibitors (Roche). The protein concentration was determined by the BCA method and 15˜30 ug of total proteins were loaded and analyzed by Western blotting with indicated antibodies. For IHC staining, brain tissues were fixed in 10% formalin overnight and embedded in paraffin. For IF staining, fresh brain tissues were immediately frozen in OCT on dry ice. IHC and IF staining were performed as we described previously (Hu B et al., 2016). Additional information about antibodies is provided in the Supplementary Material and Methods section
Immunoblotting (IB), Immunohistochemistry (IHC), and Immunofluorescence (IF). […]

[11] = GL261-CHI3L1 tumors, GMP in contrast to SCP
[12] = GMP-treated vs SCP-treated tumors, GL261-CHI3L1 model

T2 sequence (P36222 22-383): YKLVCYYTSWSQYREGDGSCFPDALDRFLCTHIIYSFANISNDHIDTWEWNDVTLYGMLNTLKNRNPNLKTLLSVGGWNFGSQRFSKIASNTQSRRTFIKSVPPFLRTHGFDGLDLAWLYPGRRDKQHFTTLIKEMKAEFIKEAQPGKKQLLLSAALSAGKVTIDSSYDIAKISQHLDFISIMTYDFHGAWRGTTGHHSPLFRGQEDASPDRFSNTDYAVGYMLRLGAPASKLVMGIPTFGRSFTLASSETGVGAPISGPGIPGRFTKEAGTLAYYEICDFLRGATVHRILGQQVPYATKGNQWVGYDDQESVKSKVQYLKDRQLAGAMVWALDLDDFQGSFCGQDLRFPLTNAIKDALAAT
T1 sequence (P36222 22-383): as above

Molecule: TLDLSRELSEALGQI [GMP]
- rCHI3L1-induced BMDM migration, dose dependence ([1]; M2 BMDMs, rCHI3L1 0.6 μg/mL, different concentrations of peptide, 6 hours): inhibits rCHI3L1-induced BMDM migration in a dose-dependent manner
- rCHI3L1-promoted M2 BMDM migration ([1]; rCHI3L1 0.6 μg/mL, peptide 30 μM, compared with SCP): significantly inhibited
- rCHI3L1+rGal3-induced M0 BMDM migration ([1]; rCHI3L1 2.5 μg/mL, rGal3 2.5 μg/mL, peptide 30 μM, in contrast to SCP): attenuated
- binding of CHI3L1 and Gal3 (Co-IP) [2]: decreasing binding of CHI3L1 and Gal3
- inhibition of Gal3/CHI3L1 [3]: increased inhibition
- CD8+ cells [4, 11]: significantly increased
- T cells (CD3+) [4, 11]: significantly increased
- PD-L1 expression in CD45+, CD8+ and CD4+ cells ([4]; GMP treatment): only a decreasing trend
- PD-L1 expression in glioma cells ([4]; GMP treatment): significantly decreased
- CTLA-4 level in CD4+ T cells ([4]; GMP vs SCP): a trend of elevated levels
- PD-1 level in CD4+ T cells ([4]; GMP vs SCP): a trend of elevated levels
- CTLA-4 expression in CD8+ T cells [4, 12]: significantly upregulated
- PD-1 expression in CD8+ T cells [4, 12]: significantly upregulated
- PD-L1 expression in CD45+, CD8+ immune cells, and glioma cells ([4]; preclinical mouse models, as restated in Example 8): significantly decrease
- CD4+ cell population ([4]; tumors of C57BL/6 mice bearing GL261-CHI3L1): 41.9±4.5%
- M2-like TAMs ([4]; tumors of C57BL/6 mice bearing GL261-CHI3L1, mean±SEM, P=0.0536): 42.8±3.8%
- M1-like TAMs ([4]; tumors of C57BL/6 mice bearing GL261-CHI3L1, mean±SEM, P=0.0719): 49.5±4.0%
- tumor growth (T2 MRI) ([5]; C57BL/6 mice bearing GL261-CHI3L1, GMP compared to SCP): reduced tumor growth
- median survival ([5]; C57BL/6 mice bearing GL261-CHI3L1 orthotopic tumors, 20 μM peptide into brain tumor via guide screw): 36 days
- mouse survival [6]: increased mouse survival
- tumor size [6]: decreased tumor size

B1: rGal3BP: recombinant Gal3BP protein; Galectin-3-binding protein, monomer PDB 6GFB used for docking (protein)
chain: VNDGDMRLADGGATNQGRVEIFYRGQWGTVCDNLWDLTDASVVCRALGFENATQALGRAAFGQGSGPIMLDEVQCTGTEASLADCKSLGWLKSNCRHERDAGVVCTNETRSTHTLDLSRELSEALGQIFDSQRGCDLSISVNVQGEDALGFCGHTVILTANLEAQALWKEPGSNVTMSVDAECVPMVRDLLRYFYSRRIDITLSSVKCFHKLASAYGARQLQGYCASLFAILLPQDPSFQMPLDLYAYAVATGDALLEKLCLQFLAWNFEALTQAEAWPSVPTDLLQLLLPRSDLAVPSELALLKAVDTWSWGERASHEEVEGLVEKIRFPMMLPEELFELQFNLSLYWSHEALFQKKTLQALEFHTVPFQLLARYKGLNLTEDTYKPRIYTSPTWSAFVTDSSWSARKSQLVYQSRRGPLVKYSSDYFQAPSDYRYYPYQSFQTPQHPSFLFQDKRVSWSLVYLPTIQSCWNYGFSCSSDELPVLGLTKSGGSDRTIAYENKALMLCEGLFVADVTDFEGWKAAIPSALDTNSSKSTSSFPCPAGHFNGFRTVIRPFYLTNSSGVD
- rCHI3L1-induced M2 BMDM migration ([1]; rCHI3L1 2.5 μg/mL, rGal3BP 5.0 μg/mL, scratch-wound healing): significantly attenuated
- rCHI3L1-induced M2 BMDM migration [7]: significantly attenuated
- competition with Gal3 for binding CHI3L1 (Co-IP) [8]: compete for the same binding site in CHI3L1
- expression of genes related to anti-inflammation (Arg1, Ym1, Ccl2, Il10) [9]: significantly inhibited
- levels of p-AKT (T473 and S308), p-S6, and p-mTOR [10]: inhibited
